Earlier results on two substances are cited in paper PMC2075610 (Biochimica et Biophysica Acta. Molecular Basis of Disease, 2006).

The test system of one series is FIV. The conditions noted are these: cited from earlier work.
The test system of a further series is FPR. As to conditions: cited from earlier work.

Take QLQKWEDWVRWI: in the series with FIV, the “inhibition of FIV infection (potency)” value was “low nanomolar”.
For WRWWWW, the “effect on FPR” value in the series on FPR is on record as “did not affect FPR”.
